# From PMC5642271 (American journal of veterinary research, 2016)
# “Also recorded” adds a separate entry of the source. Read-outs that look alike come from different tables or passages of the source.
# Columns and labels:
# [1] = Pharmacokinetics of rapamycin in blood after a single oral dose; type: in vivo, dogs; settings: experiment 1: 0.1 mg/kg PO once
# [2] = Pharmacokinetics of rapamycin in blood after oral dosing once daily for 5 days; type: in vivo, dogs
# [3] = tested on: healthy dogs; assay: Monitoring of adverse effects in healthy dogs during the study; type: in vivo; settings: 0.1 mg/kg PO once (experiment 1) and once daily for 5 days (experiment 2), vomiting between 3 and 5 hours after administration on day 4 of experiment 2
# [4] = tested on: mTOR pathway; settings: IM 0.01 to 0.08 mg/kg, peripheral blood mononuclear cells and tumor biopsy specimens, each dose cohort; cited from earlier work
# [5] = tested on: canine osteosarcoma and malignant melanoma cell lines; settings: immortalized canine cell lines; cited from earlier work
# [6] = blood samples stored frozen at −80°C for 90 days and subsequently thawed; cited from earlier work
# [7] = tested on: dogs with experimental renal allografts; settings: cited from earlier work
# [8] = tested on: dogs with osteosarcoma; settings: cited from earlier work
# [9] = compartmental NME analysis, 5 dogs
# [10] = experiment 2, day 5 of 0.1 mg/kg PO once daily, compartmental NME analysis
# [11] = experiment 2: 0.1 mg/kg PO once daily for 5 days, compartmental NME analysis, value before the change on day 5, mean for 4 dogs
# [12] = experiment 2: 0.1 mg/kg PO once daily for 5 days, whole blood, mean of n = 4, SD
smiles,measurement,setting,value
"CO[C@H]1C[C@@H]2CC[C@@H](C)[C@@](O)(O2)C(=O)C(=O)N2CCCC[C@H]2C(=O)O[C@H]([C@H](C)C[C@@H]2CC[C@@H](O)[C@H](OC)C2)CC(=O)[C@H](C)/C=C(\C)[C@@H](O)[C@@H](OC)C(=O)[C@H](C)C[C@H](C)/C=C/C=C/C=C/1C [rapamycin, Rapamycin]","V1/f, volume of the central compartment after oral administration, mean estimate",[1]; [9],6.74 L/kg
same,"V2/f, volume of the peripheral compartment after oral administration, mean estimate",[1]; [9],18.1 L/kg
same,"ka, absorption rate constant, mean estimate",[1]; [9],0.358 h⁻¹
same,Cmax (mean ± SD),"[1]; whole blood, mean of n = 5, SD",8.39 ± 1.73 ng/mL
same,Tmax (mean ± SD),"[1]; whole blood, mean of n = 5, SD",3.3 ± 2.5 h
same,concentration 48 hours after drug administration (mean ± SD),"[1]; whole blood, mean of n = 5, SD",1.38 ± 0.45 ng/mL
same,"t1/2, terminal half-life (mean ± SD)","[1]; whole blood, noncompartmental, mean of n = 5, SD",38.7 ± 12.7 h
same,mean V1/f on the last day (day 5) of administration,[2]; [10],16.8 L/kg
same,mean ka on the last day (day 5) of administration,[2]; [10],2.17 h⁻¹
same,"V2/f, volume of the peripheral compartment after oral administration, mean estimate","[2]; experiment 2: 0.1 mg/kg PO once daily for 5 days, compartmental NME analysis, mean for 4 dogs",22.1 L/kg
same,"V1/f, volume of the central compartment after oral administration, mean estimate",[2]; [11],4.53 L/kg
same,"ka, absorption rate constant, mean estimate",[2]; [11],0.294 h⁻¹
same,Tmax (mean ± SD),"[2]; experiment 2: 0.1 mg/kg PO once daily for 5 days, mean of n = 4, SD",4.5 ± 1.0 h
same,Cmax (mean ± SD),[2]; [12],5.49 ± 1.99 ng/mL
same,concentration 48 hours after drug administration (mean ± SD),[2]; [12],1.70 ± 0.40 ng/mL
same,Parameter characterizing the change in ka on the last day (day 5) of rapamycin administration in experiment 2,"[2]; βOCC2 of the NME model, θμD5 = θμD1−4e^βOCC2, P = 0.002",2.0
same,Parameter characterizing the change in V1/f on the last day (day 5) of rapamycin administration in experiment 2,"[2]; βOCC2 of the NME model, P = 0.002",1.31
same,adverse effects observed,[3],"None of the dogs had a substantial change in energy level, appetite, water intake, urination, or defecation; also recorded: One dog vomited once; also recorded: No other adverse effects were observed"
same,modulation of the mTOR pathway,[4],modulation of the mTOR pathway was detected
same,viable tumor cells after exposure to rapamycin,[5],"significant, dose-dependent decrease in viable tumor cells"
same,rapamycin concentration in stored blood samples (stability),[6],not substantially affected
same,prevention of renal allograft rejection,"[7]; 0.05 mg/kg, IV",did not provide sufficient immunosuppression to prevent rejection of the renal allograft
same,prevention of renal allograft rejection,"[7]; 0.1 mg/kg, IM q 48 h or twice weekly, in combination with cyclosporine and antilymphocyte serum",not sufficient to prevent renal allograft rejection
same,maximally tolerated dose,"[8]; IM injection, doses ranging from 0.01 to 0.08 mg/kg",a maximally tolerated dose was not achieved
same,injection site reaction,"[8]; dog, in vivo",sterile abscesses at the injection site
